The subject of the test is CD2F1 mice, L1210 leukemia ip, survival T/C. Put plainly: NCI In Vivo Anticancer Drug Screen. Data for tumor model L1210 Leukemia (intraperitoneal) in CD2F1 (CDF1) mice. Conditions: endpoint: mean survival time, higher = longer survival. Summed up: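 Read-out first: treated-group measurement over vehicle-control measurement, expressed as a ratio. Animals bore a transplanted tumor line and were dosed with compound or vehicle.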

Where [1] appears, read: dose: 100.0 mg/kg/injection, schedule: Q01DX009 (ip), vehicle: saline with Tween-80.
[2] abbreviates: dose: 200.0 mg/kg/injection, schedule: Q01DX009 (ip), vehicle: saline with Tween-80.
[3] abbreviates: dose: 100.0 mg/kg/injection, schedule: Q04DX003 (ip), vehicle: saline with Tween-80.
Where [4] appears, read: dose: 200.0 mg/kg/injection, schedule: Q04DX003 (ip), vehicle: saline with Tween-80.

Data on nine molecules can be found in PubChem BioAssay AID256 (DTP/NCI, 2004).

Several values for one entry are separate records, joined by “and”; a condition that tells them apart may be missing. Identical values can stand only once. Toxic doses and inconclusive results are not listed.

Turning to `O=C(Nc1ccc(NC2=NCCN2)cc1)c1ccc(C(=O)Nc2ccc(NC3=NCCN3)cc2)cc1`, for the setting “dose: 3.0 mg/kg/injection, schedule: Q01DX008 (iv), vehicle: water”, the T/C was 115 % of control.
On to `Cc1ccc([Si](C)Cl)cc1`, for which the T/C is, setting by setting: under setting [1], 96 % of control; under setting [2], 93 % of control.
For the molecule `Cc1ccc(Cl)cc1NS(=O)(=O)c1ccccc1`, the T/C was 94 % of control under setting [1]; 100 % of control under setting [3]; 96 % of control under setting [2]; 105 % of control under setting [4]; 94 % of control (dose: 400.0 mg/kg/injection, schedule: Q01DX009 (ip), vehicle: saline with Tween-80); 105 % of control (dose: 400.0 mg/kg/injection, schedule: Q04DX003 (ip), vehicle: saline with Tween-80).
`Nc1ncnc2c(C3OC(CO)C(O)C3O)[nH]nc12` (centres undefined): the T/C reads like this: (dose: 6.25 mg/kg/injection, schedule: Q01DX009 (ip), vehicle: saline with Tween-80) 108 % of control; (dose: 12.5 mg/kg/injection, schedule: Q01DX009 (ip), vehicle: saline with Tween-80) 120 % of control; (dose: 25.0 mg/kg/injection, schedule: Q01DX009 (ip), vehicle: saline with Tween-80) 113 % of control; under setting [3], 101 % of control; under setting [4], 109 % of control.
As to `O=C(Nc1ccccc1[N+](=O)[O-])OCc1ccccc1`, the T/C (dose: 100.0 mg/kg/injection, schedule: Q04DX002 (ip), vehicle: saline with Tween-80) was 95 % of control; the T/C (dose: 200.0 mg/kg/injection, schedule: Q04DX002 (ip), vehicle: saline with Tween-80) is 91 % of control; the T/C (dose: 400.0 mg/kg/injection, schedule: Q04DX002 (ip), vehicle: saline with Tween-80) is 91 % of control.
In the case of `N#CC1(C#N)OC1(C#N)c1ccccc1` (centres undefined), the T/C by setting is: (dose: 3.0 mg/kg/injection, schedule: Q01DX009 (ip), vehicle: saline with Tween-80) 101 % of control; (dose: 6.25 mg/kg/injection, schedule: Q01DX001 (ip), vehicle: saline with Tween-80) 95 % of control; (dose: 12.0 mg/kg/injection, schedule: Q01DX009 (ip), vehicle: saline with Tween-80) 98 % of control.
With `Nc1nc([S-])c2[nH]cnc2n1.[Cl-].[Cl-].[H+].[Pd+2].[Pd+2].[Pd+2]`, the T/C is 124 % of control (dose: 3.13 mg/kg/injection, schedule: Q04DX003 (ip), vehicle: saline with Tween-80); 164 % of control (dose: 6.25 mg/kg/injection, schedule: Q04DX003 (ip), vehicle: saline with Tween-80); 114 % of control and 91 % of control (dose: 100.0 mg/kg/injection, schedule: Q04DX003 (ip), vehicle: suspension in saline).
For the molecule `CC(C)/C=N\O`, the T/C reads like this: (dose: 50.0 mg/kg/injection, schedule: Q01DX001 (ip), vehicle: saline) 107 % of control; (dose: 100.0 mg/kg/injection, schedule: Q01DX001 (ip), vehicle: saline) 110 % of control; (dose: 200.0 mg/kg/injection, schedule: Q01DX001 (ip), vehicle: saline) 107 % of control.
For the molecule `c1ccc(N/N=C(/N=Nc2ccc(-c3ccc(N=N/C(=N/Nc4ccccc4)c4ccccc4)cc3)cc2)c2ccccc2)cc1`, the T/C is 97 % of control (dose: 50.0 mg/kg/injection, schedule: Q01DX009 (ip), vehicle: saline with Tween-80); 97 % of control under setting [1]; 102 % of control under setting [2].
